The values below come from patent US20220273659A1, “HETEROCYCLIC COMPOUNDS AS KINASE INHIBITORS” (NUVATION BIO INC., priority 2019, published 2022).

One experiment addresses T1, PI3Kδ kinase (Homo sapiens, UniProt O00329).
T1 construct: purchased Reaction Biology Corporation (assay service)
Put plainly: PI3Kδ kinase assay (ADP-Glo, Reaction Biology). The experiment is classed as biochemical. As to the method: IC50 values of compounds against the PI3Kδ kinase were determined by an assay performed by Reaction Biology Corporation (Malvern, Pa.). Briefly, this assay was conducted in buffer (Tris-HCl 40 mM (pH7.5), Orthovanadate 3 mM, MgCl2 20 mM, DTT 2 mM, CHAPS 0.05%, DMSO 1%). PI3Kδ kinase was added to the reaction solution and mixed gently. The test compounds in 100% DMSO (at specific solutions) were mixed with the kinase reaction mixture to achieve the final compounds at pre-defined concentrations (e.g., range −0.5 nM to 100 μM) by Acoustic technology (Echo550; nanoliter range). After incubating for 10 min at room temp, ATP was added into the reaction mixture to initiate the reaction followed by a 30-min incubation at 30° C. After quenching the reaction with ADP-Glo reagent, the plates were incubated for 40 min. The Detection Mixture was added, and the plate was incubated for an additional 30 min. At the end of incubation, luminescence was measured. For data analysis, the luminescence was converted into μM ADP production based on ADP standard curves. The nonlinear regression to obtain the standard curve and IC50 values was performed using GraphPad Prism (GraphPad Software, Inc., San Diego, Calif.).
(In general: ADP-Glo turns the ADP formed in a reaction into a luminescent signal.)

A further experiment deals with T2, FMS kinase (Homo sapiens, UniProt P07333).
T2 construct: purchased Invitrogen (Life Technologies)
T2 sequence (P07333 20-972): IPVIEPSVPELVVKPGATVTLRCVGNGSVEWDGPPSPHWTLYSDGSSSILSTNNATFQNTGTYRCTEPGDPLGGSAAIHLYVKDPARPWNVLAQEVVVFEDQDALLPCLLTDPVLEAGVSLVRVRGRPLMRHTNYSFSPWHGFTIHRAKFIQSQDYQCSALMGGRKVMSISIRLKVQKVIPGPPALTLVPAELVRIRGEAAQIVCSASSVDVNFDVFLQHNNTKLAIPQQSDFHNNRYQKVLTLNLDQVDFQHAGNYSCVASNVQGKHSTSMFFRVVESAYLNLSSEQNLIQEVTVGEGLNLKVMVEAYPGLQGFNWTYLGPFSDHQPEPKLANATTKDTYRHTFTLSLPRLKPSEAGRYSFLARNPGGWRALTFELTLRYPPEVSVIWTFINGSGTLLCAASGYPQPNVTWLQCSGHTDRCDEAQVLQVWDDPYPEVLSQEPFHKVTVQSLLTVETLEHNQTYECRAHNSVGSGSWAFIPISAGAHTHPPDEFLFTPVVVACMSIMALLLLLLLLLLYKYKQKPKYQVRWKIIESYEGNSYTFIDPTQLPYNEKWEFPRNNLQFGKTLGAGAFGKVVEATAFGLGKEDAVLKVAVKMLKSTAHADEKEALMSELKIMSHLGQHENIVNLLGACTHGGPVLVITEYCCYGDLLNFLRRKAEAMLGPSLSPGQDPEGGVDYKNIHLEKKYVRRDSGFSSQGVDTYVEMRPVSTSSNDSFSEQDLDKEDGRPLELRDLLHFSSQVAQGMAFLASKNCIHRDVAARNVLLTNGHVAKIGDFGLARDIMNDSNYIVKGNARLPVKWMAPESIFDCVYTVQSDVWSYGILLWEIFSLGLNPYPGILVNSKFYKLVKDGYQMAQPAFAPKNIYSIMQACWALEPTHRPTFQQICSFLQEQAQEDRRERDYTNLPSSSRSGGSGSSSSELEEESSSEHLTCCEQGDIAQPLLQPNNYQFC
In words: LanthaScreen Eu Kinase Binding Assay (ATP, fluorescent-PolyGT substrate). It counts as biochemical. Here is the method: IC50 values of compounds against FMS kinase were determined by LanthaScreen™ Eu Kinase Binding Assay at Invitrogen (Life Technologies Grand Island, N.Y.) where total reaction volume was 10 μL in low-volume 384-well plates (#4511, Corning). Serially diluted compounds (3-fold) were incubated with kinase (1.25 nM) for 10 min, following which a mixture of ATP (10 μM) (#A1852, Sigma, St-Louis, Mo.) and fluorescent-PolyGT substrate (200 nM) (#PV3610, Invitrogen, Life Technologies Grand Island, N.Y.) was added and incubated in dark at room temperature for 1H. After 1H, 10 μL stop solution containing Terbium labeled antibody (4 nM) (#PV3529, Invitrogen, Life Technologies Grand Island, N.Y.) and EDTA (#E5134, Sigma, St-Louis, Mo.) (20 mM) in TR-FRET dilution buffer (#PV3574, Invitrogen, Life Technologies Grand Island, N.Y.) was added. Readings were taken in a Synergy Neo Plate reader (BioTek, Winooski) at single excitation of 340 nm and Dual emission at 495 nm and 520 nm respectively.
The following equations were used for LanthaScreen Eu Kinase Binding Assay Data Analysis. Percent inhibition (100-% activity) was fitted to the “four-parameter logistic model” in XLfit for determination of IC50 values.

In experiment [1] the test system is MCF-7 breast adenocarcinoma cells. In words: Cancer cell proliferation assay, single agent (cell viability). It counts as cell-based. The note with it: Homo sapiens, MCF7, Table 4; Rb positive; treatment 144 Hr with medium change at 72 Hr; Cell Titer-Glo or resazurin. An outline of the steps:
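Cells seeded day 1, then exposed on day 2 to 7–9 compound concentrations (e.g. 1.1 nM–10 μM); BT-549 for 24 h, MCF-7 and DU4475 for 144 h with medium change at 72 h. Viability by CellTiter-Glo or resazurin; IC50 from variable-slope sigmoidal fit.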

A further experiment deals with T3, CDK4 (Homo sapiens, UniProt P11802).
T3 construct: purchased Invitrogen PR8064A
T3 sequence (P11802 whole entry): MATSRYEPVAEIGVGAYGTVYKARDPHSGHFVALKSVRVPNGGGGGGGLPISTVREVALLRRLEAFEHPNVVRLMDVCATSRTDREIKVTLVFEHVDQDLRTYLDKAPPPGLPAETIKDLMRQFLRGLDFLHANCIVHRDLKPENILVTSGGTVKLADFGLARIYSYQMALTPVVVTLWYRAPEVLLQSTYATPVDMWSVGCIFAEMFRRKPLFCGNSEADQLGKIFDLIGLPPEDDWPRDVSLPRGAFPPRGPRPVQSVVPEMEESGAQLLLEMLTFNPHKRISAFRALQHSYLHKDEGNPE
T3 sequence (P24385 whole entry partner): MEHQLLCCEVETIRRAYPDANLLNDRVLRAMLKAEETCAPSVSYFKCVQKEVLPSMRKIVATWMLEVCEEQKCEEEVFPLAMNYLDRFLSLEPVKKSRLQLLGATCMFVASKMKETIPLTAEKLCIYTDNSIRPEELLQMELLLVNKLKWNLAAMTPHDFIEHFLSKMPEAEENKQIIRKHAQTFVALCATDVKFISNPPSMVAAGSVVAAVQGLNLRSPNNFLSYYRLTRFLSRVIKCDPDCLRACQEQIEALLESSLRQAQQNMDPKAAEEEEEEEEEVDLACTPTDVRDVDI
Put plainly: In vitro kinase inhibition IC50, luminescence (ADP Glo), retinoblastoma substrate. The note with it: read-out: CDK4/D1 IC50. It counts as biochemical. An outline of the steps: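 CDK4 enzyme (5 nM, Invitrogen) was combined with test compound and a mix of retinoblastoma substrate (1 μM) plus ATP (25 μM) in kinase buffer, 30 μL/well in 96-well half area white plates. After 2H at room temperature, ADP Glo reagent stopped the reaction for 45 min, then detection reagent was added and luminescence was read.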

For another experiment, the target named is T4, CDK6 (Homo sapiens, UniProt Q00534).
T4 construct: purchased Invitrogen PR8422B
T4 sequence (Q00534 whole entry): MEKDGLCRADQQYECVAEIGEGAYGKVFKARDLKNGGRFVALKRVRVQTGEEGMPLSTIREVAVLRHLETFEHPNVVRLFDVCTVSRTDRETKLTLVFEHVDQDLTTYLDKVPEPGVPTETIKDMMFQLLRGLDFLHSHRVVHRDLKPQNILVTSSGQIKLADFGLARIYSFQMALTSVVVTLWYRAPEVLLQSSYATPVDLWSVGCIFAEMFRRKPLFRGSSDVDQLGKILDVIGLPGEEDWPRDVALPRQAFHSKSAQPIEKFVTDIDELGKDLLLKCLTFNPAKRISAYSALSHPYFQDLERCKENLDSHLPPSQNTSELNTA
T4 sequence (P24385 whole entry partner): as the sequence (P24385 whole entry partner) above
Described as above. The experiment is classed as biochemical. The note with it: read-out: CDK6/D1 IC50. An outline of the steps:
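Recombinant CDK6 (5 nM) with retinoblastoma substrate (1 μM) and 25 μM ATP, compound at final 0.1–200 nM, incubated 2 h at room temperature. ADP formed detected by ADP-Glo luminescence. IC50 from four-parameter logistic fit of percent inhibition.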

Some results are limits rather than exact numbers.

T1 sequence (O00329 whole entry): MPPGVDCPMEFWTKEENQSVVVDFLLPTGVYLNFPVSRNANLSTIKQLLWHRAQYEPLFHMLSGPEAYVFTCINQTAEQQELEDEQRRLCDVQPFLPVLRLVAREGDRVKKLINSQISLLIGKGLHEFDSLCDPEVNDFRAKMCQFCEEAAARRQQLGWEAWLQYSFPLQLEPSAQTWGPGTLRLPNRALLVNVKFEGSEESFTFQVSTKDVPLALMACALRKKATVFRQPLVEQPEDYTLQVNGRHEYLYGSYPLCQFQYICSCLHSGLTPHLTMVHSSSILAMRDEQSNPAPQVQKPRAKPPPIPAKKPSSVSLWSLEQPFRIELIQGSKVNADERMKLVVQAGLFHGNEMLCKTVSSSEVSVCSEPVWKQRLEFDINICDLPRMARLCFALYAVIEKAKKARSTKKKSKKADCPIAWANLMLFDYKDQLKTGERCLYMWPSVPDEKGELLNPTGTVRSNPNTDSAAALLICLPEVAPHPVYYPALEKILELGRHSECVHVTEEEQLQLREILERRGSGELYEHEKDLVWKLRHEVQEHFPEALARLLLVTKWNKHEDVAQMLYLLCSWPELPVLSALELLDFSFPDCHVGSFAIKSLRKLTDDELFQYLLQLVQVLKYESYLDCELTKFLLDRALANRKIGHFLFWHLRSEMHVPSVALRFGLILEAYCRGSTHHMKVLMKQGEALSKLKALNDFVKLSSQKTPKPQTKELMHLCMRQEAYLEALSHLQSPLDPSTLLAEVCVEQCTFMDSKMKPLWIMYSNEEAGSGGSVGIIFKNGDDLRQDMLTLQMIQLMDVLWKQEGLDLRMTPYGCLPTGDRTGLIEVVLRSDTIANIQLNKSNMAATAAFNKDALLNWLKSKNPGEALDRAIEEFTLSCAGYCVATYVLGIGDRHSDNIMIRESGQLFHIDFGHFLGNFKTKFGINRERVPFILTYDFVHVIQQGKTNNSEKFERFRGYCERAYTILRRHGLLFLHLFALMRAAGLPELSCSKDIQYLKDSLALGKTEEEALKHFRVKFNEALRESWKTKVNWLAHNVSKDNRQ
T1 sequence (P27986 whole entry partner): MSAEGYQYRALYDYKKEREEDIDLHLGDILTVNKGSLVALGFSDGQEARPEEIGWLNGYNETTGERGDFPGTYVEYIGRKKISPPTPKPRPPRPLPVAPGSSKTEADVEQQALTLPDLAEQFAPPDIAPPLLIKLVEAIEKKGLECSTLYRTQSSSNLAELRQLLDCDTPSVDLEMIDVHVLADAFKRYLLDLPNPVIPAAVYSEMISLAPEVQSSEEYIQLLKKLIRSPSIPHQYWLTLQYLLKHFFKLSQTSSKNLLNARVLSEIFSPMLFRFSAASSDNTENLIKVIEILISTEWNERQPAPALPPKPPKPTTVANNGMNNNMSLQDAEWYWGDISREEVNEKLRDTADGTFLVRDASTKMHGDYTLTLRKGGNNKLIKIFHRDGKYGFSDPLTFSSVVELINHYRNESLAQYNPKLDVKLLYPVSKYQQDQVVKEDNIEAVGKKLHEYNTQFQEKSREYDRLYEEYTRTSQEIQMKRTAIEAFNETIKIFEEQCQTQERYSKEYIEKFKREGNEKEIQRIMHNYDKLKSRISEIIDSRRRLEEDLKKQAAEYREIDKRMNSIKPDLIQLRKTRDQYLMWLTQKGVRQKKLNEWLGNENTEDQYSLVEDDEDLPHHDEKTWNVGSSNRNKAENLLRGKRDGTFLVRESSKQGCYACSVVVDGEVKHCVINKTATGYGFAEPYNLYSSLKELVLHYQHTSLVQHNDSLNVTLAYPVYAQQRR

As to `N#Cc1cc2cnc(Nc3ccc(N4CCNCC4=O)cc3)nc2n(C2CCCC2)c1=O` [Compound No. 12, 8-cyclopentyl-7-oxo-2-((4-(2-oxopiperazin-1-yl)phenyl)amino)-7,8-dihydropyrido[2,3-d]pyrimidine-6-carbonitrile], the IC50 at PI3Kδ kinase turned out to be 1330 nM; on FMS kinase, 0.4 nM; in experiment [1] it was 2500 nM.
For the compound `CN(C)Cc1c[nH]c2cc(Nc3ncc4cc(C#N)c(=O)n(C5CCCC5)c4n3)ccc12` [Compound No. 21, 8-cyclopentyl-2-((3-((dimethylamino)methyl)-1H-indol-6-yl)amino)-7-oxo-7,8-dihydropyrido[2,3-d]pyrimidine-6-carbonitrile], the IC50 is 1010 nM against PI3Kδ kinase; 2.5 nM at FMS kinase; 11 nM at CDK4; 2 nM on CDK6; 238 nM in experiment [1].
For `N#Cc1cc2cnc(Nc3ccc(N4CCNCC4)cc3)nc2n(C2CCc3ccccc32)c1=O` (stereo not shown) [Compound No. 42, 8-(2,3-dihydro-1H-inden-1-yl)-7-oxo-2-((4-(piperazin-1-yl)phenyl)amino)-7,8-dihydropyrido[2,3-d]pyrimidine-6-carbonitrile] the same measures were 651 nM, 4 nM, 57 nM, 12 nM and 713 nM.
For `CN(C)CC1Cc2ccc(Nc3ncc4cc(C#N)c(=O)n(C5CCCC5)c4n3)cc2C(=O)N1` (stereo not shown) [Compound No. 22, 8-cyclopentyl-2-((3-((dimethylamino)methyl)-1-oxo-1,2,3,4-tetrahydroisoquinolin-7-yl)amino)-7-oxo-7,8-dihydropyrido[2,3-d]pyrimidine-6-carbonitrile], the IC50 was 43 nM against PI3Kδ kinase; < 1 nM on FMS kinase; > 200 nM at CDK4; 65 nM at CDK6; 1020 nM in experiment [1].
The matching figures for `N#Cc1cc2cnc(Nc3ccc(N4CCC(O)CC4)c(F)c3)nc2n(C2CCCC2)c1=O` [Compound No. 49, 8-cyclopentyl-2-((3-fluoro-4-(4-hydroxypiperidin-1-yl)phenyl)amino)-7-oxo-7,8-dihydropyrido[2,3-d]pyrimidine-6-carbonitrile]: 4.3 nM, 1 nM, 9.1 nM, 4 nM and 4440 nM.
Turning to `CN(C)C1CCN(c2ccc(Nc3ncc4cc(C#N)c(=O)n(C5CCCC5)c4n3)cc2F)CC1` [Compound No. 44, 8-cyclopentyl-2-((4-(4-(dimethylamino)piperidin-1-yl)-3-fluorophenyl)amino)-7-oxo-7,8-dihydropyrido[2,3-d]pyrimidine-6-carbonitrile], the IC50 at PI3Kδ kinase turned out to be 95 nM; on FMS kinase, 2.5 nM; on CDK4, 2 nM; at CDK6, 1 nM; in experiment [1], 95 nM.
`CN1CCN(c2ccc(Nc3ncc4cc(C#N)c(=O)n([C@H]5CC[C@H](C)CC5)c4n3)cc2)CC1` [Compound No. 1, 8-((1r,4r)-4-methylcyclohexyl)-2-((4-(4-methylpiperazin-1-yl)phenyl)amino)-7-oxo-7,8-dihydropyrido[2,3-d]pyrimidine-6-carbonitrile]: the IC50 at PI3Kδ kinase is 389 nM; on FMS kinase, < 300 nM; at CDK4, 2 nM; at CDK6 it was 1 nM; in experiment [1], 8060 nM.
Consider `CN1CCN(CCCn2cc(Nc3ncc4cc(C#N)c(=O)n(C5CCCC5)c4n3)cn2)CC1` [Compound 56], for which the IC50 at PI3Kδ kinase was > 30000 nM; on FMS kinase, > 5000 nM; on CDK4, > 200 nM.
Turning to `CN1CCN(C(=O)Cn2cc(Nc3ncc4cc(C#N)c(=O)n(C5CCCC5)c4n3)cn2)CC1` [Compound 58], the IC50 at PI3Kδ kinase was > 30000 nM; at FMS kinase, 4520 nM; on CDK4, > 200 nM.
For the compound `CCN(CC)CCOc1ccc(Nc2ncc3cc(C#N)c(=O)n(C4CCCC4)c3n2)cc1` [Compound No. 41, 8-cyclopentyl-2-((4-(2-(diethylamino)ethoxy)phenyl)amino)-7-oxo-7,8-dihydropyrido[2,3-d]pyrimidine-6-carbonitrile], the IC50 against PI3Kδ kinase was 405 nM; on FMS kinase it was < 1 nM; on CDK4 it was 5.5 nM; at CDK6, 1 nM; in experiment [1], 164 nM.
Turning to `N#Cc1cc2cnc(Nc3cccc(S(N)(=O)=O)c3)nc2n(C2CCCC2)c1=O` [Compound No. 3, 3-((6-cyano-8-cyclopentyl-7-oxo-7,8-dihydropyrido[2,3-d]pyrimidin-2-yl)amino)benzenesulfonamide], the IC50 against PI3Kδ kinase was found to be 130 nM; at FMS kinase, 35 nM; at CDK4 it was 12 nM; at CDK6, 14 nM.
In the case of `CN1CCN(c2ccc(Nc3ncc4cc(C#N)c(=O)n(C5CCCC5)c4n3)cc2F)CC1` [Compound No. 36, 8-cyclopentyl-2-((3-fluoro-4-(4-methylpiperazin-1-yl)phenyl)amino)-7-oxo-7,8-dihydropyrido[2,3-d]pyrimidine-6-carbonitrile], the IC50 on PI3Kδ kinase amounted to 1030 nM; at FMS kinase it was 6.5 nM; at CDK4 it was 1 nM; on CDK6 it was 1 nM; in experiment [1], 315 nM.
Take `N#Cc1cc2cnc(Nc3ccc(S(=O)(=O)N4CCC(O)CC4)cc3)nc2n(C2CCCC2)c1=O` [Compound No. 14, 8-cyclopentyl-2-((4-((4-hydroxypiperidin-1-yl)sulfonyl)phenyl)amino)-7-oxo-7,8-dihydropyrido[2,3-d]pyrimidine-6-carbonitrile]: the IC50 at PI3Kδ kinase was found to be 976 nM; at FMS kinase it was 2.5 nM.
`C[C@H]1CC[C@H](n2c(=O)c(C#N)cc3cnc(Nc4cccc(S(N)(=O)=O)c4)nc32)CC1` [Compound No. 2, 3-((6-cyano-8-((1r,4r)-4-methylcyclohexyl)-7-oxo-7,8-dihydropyrido[2,3-d]pyrimidin-2-yl)amino)benzenesulfonamide]: the IC50 on PI3Kδ kinase is 129 nM; at FMS kinase, 180 nM.
Consider `N#Cc1cc2cnc(Nc3cccc(C(N)=O)c3)nc2n(C2CCCC2)c1=O` [Compound No. 5, 3-((6-cyano-8-cyclopentyl-7-oxo-7,8-dihydropyrido[2,3-d]pyrimidin-2-yl)amino)benzamide], for which the IC50 at PI3Kδ kinase came out at 444 nM; at FMS kinase, 1 nM; at CDK4, 212 nM; at CDK6, 48 nM.
Turning to `CN1CCN(S(=O)(=O)c2ccc(Nc3ncc4cc(C#N)c(=O)n(C5CCCC5)c4n3)cc2)CC1` [Compound No. 15, 8-cyclopentyl-2-((4-((4-methylpiperazin-1-yl)sulfonyl)phenyl)amino)-7-oxo-7,8-dihydropyrido[2,3-d]pyrimidine-6-carbonitrile], the IC50 at PI3Kδ kinase amounted to 3730 nM; at FMS kinase, 5.5 nM.
Consider `C[C@H]1CC[C@H](n2c(=O)c(C#N)cc3cnc(Nc4cccc(C(N)=O)c4)nc32)CC1` [Compound No. 4, 3-((6-cyano-8-((1r,4r)-4-methylcyclohexyl)-7-oxo-7,8-dihydropyrido[2,3-d]pyrimidin-2-yl)amino)benzamide], for which the IC50 was determined as 2730 nM against PI3Kδ kinase and 1 nM at FMS kinase.
For `CN(C)CCNC(=O)c1cccc(Nc2ncc3cc(C#N)c(=O)n(C4CCCC4)c3n2)c1` [Compound No. 11, 3-((6-cyano-8-cyclopentyl-7-oxo-7,8-dihydropyrido[2,3-d]pyrimidin-2-yl)amino)-N-(2-(dimethylamino)ethyl)benzamide], the IC50 was determined as 1030 nM at PI3Kδ kinase and 2.4 nM at FMS kinase.
